Experiments:
[1] = unit not given; cited from earlier work
[2] = RF-acoustic signal characterization in tube phantom (433 MHz UHF-RF pulse); conditions: salts 10 wt %, NaOH 4 wt %; 1 mm tubes
Method: To determine the optimal composition of salt solutions for UHF-RF-acoustic contrast agents, five different salts were chosen, NaCl(aq), KI(aq), KCl(aq), MgCl2(aq), and CaCl2(aq) based on their ionic conductivity, solubility in water, and biocompatibility. NaOH(aq) was selected as a control because of its high ionic conductivity but low biocompatibility. […] Their UHF-RF-acoustic signals were measured using a prototype RF-acoustic tomography system with a nanosecond UHF-RF pulse at 433 MHz since this frequency is within the medical device radio-communications service band (MedRadio) (FIGS. 1B-1D). […] The generated RF-acoustic signals were collected by an ultrasound-linear-array transducer with a central frequency at 3.5 MHz that provides 1.2 mm imaging resolution on the transverse plane (FIGS. 1E-1F).
For comparison, a tube was included with only physiological saline (0.9 wt % of NaCl) to mimic RF-acoustic background of tissue. […]
A prototype RF-acoustic tomography imaging system (with main parts from Endra) was used to measure the RF-acoustic signal from the phantom and the mice. […] At each angle, 4095 pulses were recorded and averaged to improve the signal-to-noise ratio. […] The average energy density of a pulse at the target site was measured to be 1 mJ/cm^2, which is within the safety limit of tissue exposure. […] Acoustic signals were recorded by an ultrasound imaging system. […]

| SMILES | Water solubility [1] | RF-acoustic signal of electrolyte solutions (comparison) [2] |
| --- | --- | --- |
| FC(F)(F)C(F)(F)C(F)(F)C(F)(F)C(F)(F)C(F)(F)F [Perfluorohexane, perfluorohexane] | 2.70 × 10^−7 | – |
| FC1(F)C(F)(F)C(F)(F)C2(F)C(F)(F)C(F)(F)C(F)(F)C(F)(F)C2(F)C1(F)F (centres unmarked) [Perfluorodecalin, perfluorodecalin] | 9.90 × 10^−9 | – |
| FC(F)(F)C(F)(F)C(F)(F)C(F)(F)C(F)(F)F [Perfluoropentane, perfluoropentane] | 4.00 × 10^−6 | – |
| [Na+].[OH-] [NaOH(aq), sodium hydroxide, reference compound] | – | strongest RF-acoustic signal |
| [Cl-].[Na+] [NaCl, sodium chloride] | – | weaker signals than KCl |

Source: US20200323999A1 (The Board of Trustees of the Leland Stanford Junior …, priority 2019, published 2020)
